From patent US9724347B2, “1-pyrazolyl-3-(4-((2-anilinopyrimidin-4-yl)oxy)napththalen-1-yl) ureas as P38 MAP knase inhibitors” (Respivert Ltd., priority 2011, dated 2017)

Assays:
p38MAPKγ (MAPK12) = p38MAPKγ (MAPK12) (Homo sapiens (Human), UniProt P53778); experiment: p38 MAPKγ enzyme inhibition (FRET, Z-LYTE); format: biochemical
Description: The enzyme inhibitory activities of compounds disclosed herein were determined by FRET using synthetic peptides labelled with both donor and acceptor fluorophores (Z-LYTE, Invitrogen Ltd., Paisley, UK). […] Development reagent (protease, 5 μL) was added for 1 hr prior to detection in a fluorescence microplate reader (Varioskan® Flash, Thermo Scientific). In all cases, the site-specific protease cleaves non-phosphorylated peptide only and eliminates the FRET signal. Phosphorylation levels of each reaction were calculated using the ratio of coumarin emission (donor) over fluorescein emission (acceptor), for which low ratios indicate high phosphorylation and high ratios indicate low phosphorylation levels.

[1] = system: ICAM-1 expression in BEAS2B cells; experiment: Poly I:C-induced ICAM-1 expression in BEAS2B cells; format: cell-based, human; settings: Homo sapiens, BEAS-2B, read-out: PolyIC/ICAM1 IC50 (BEAS2B)
Description: Poly I:C was used in these studies as a simple, RNA virus mimic. Poly I:C-Oligofectamine mixture (1 μg/mL Poly I:C, ±2% Oligofectamine, 25 μL; Invivogen Ltd., San Diego, Calif., and Invitrogen, Carlsbad, Calif., respectively) was transfected into BEAS2B cells (human bronchial epithelial cells, ATCC). Cells were pre-incubated with final concentrations of test compounds for 2 hr and the level of ICAM-1 expression on the cell surface was determined by cell-based ELISA. At a time point 18 hr after poly I:C transfection, cells were fixed with 4% formaldehyde in PBS (100 μL) and then endogenous peroxidase was quenched by the addition of washing buffer (100 μL, 0.05% Tween in PBS: PBS-Tween) containing 0.1% sodium azide and 1% hydrogen peroxide. Cells were washed with wash-buffer (3×200 μL). and after blocking the wells with 5% milk in PBS-Tween (100 μL) for 1 hr, the cells were incubated with anti-human ICAM-1 antibody (50 μL; Cell Signaling Technology, Danvers, Mass.) in 1% BSA PBS overnight at 4° C.
The cells were washed with PBS-Tween (3×200 μL) and incubated with the secondary antibody (100 μL; HRP-conjugated anti-rabbit IgG, Dako Ltd., Glostrup, Denmark). The cells were then incubated with of substrate (50 μL) for 2-20 min, followed by the addition of stop solution (50 μL, 1N H2SO4). The ICAM-1 signal was detected by reading […] the absorbance at 450 nm against a reference wavelength of 655 nm using a spectrophotometer. The cells were then washed with PBS-Tween (3×200 μL) and total cell numbers in each well were determined by reading absorbance at 595 nm after Crystal Violet staining (50 μL of a 2% solution in PBS) and elution by 1% SDS solution (100 μL) in distilled water. The measured OD 450-655 readings were corrected for cell number by dividing with the OD595 reading in each well. The inhibition of ICAM-1 expression was calculated at each concentration of test compound by comparison with vehicle control.

[2] = biological target: p38 MAPKα isoform (MAPK14) (Homo sapiens (Human), UniProt Q16539); experiment: p38 MAPKα enzyme inhibition (FRET, Z-LYTE); format: biochemical
Description: The enzyme inhibitory activities of compounds disclosed herein were determined by FRET using synthetic peptides labelled with both donor and acceptor fluorophores (Z-LYTE, Invitrogen Ltd., Paisley, UK). The inhibitory activities of test compounds against the p38 MAPKα isoform (MAPK14: Invitrogen), were evaluated indirectly by determining the level of activation/phosphorylation of the down-stream molecule, MAPKAP-K2. […] The mixture was incubated for 1 hr at RT. Development reagent (protease, 5 μL) was added for 1 hr prior to detection in a fluorescence microplate reader (Varioskan® Flash, ThermoFisher Scientific). In all cases, the site-specific protease cleaves non-phosphorylated peptide only and eliminates the FRET signal. Phosphorylation levels of each reaction were calculated using the ratio of coumarin emission (donor) over fluorescein emission (acceptor), for which low ratios indicate high phosphorylation and high ratios indicate low phosphorylation levels.

d-U937 cells = experiment: Cell viability: MTT assay; format: cell-based, human; settings: 1 μg/mL
Description: Differentiated U937 cells were pre-incubated with each test compound (final concentration 1 μg/mL or 10 μg/mL in 200 μL media indicated below) under two protocols: the first for 4 hr in 5% FCS RPMI1640 media and the second in 10% FCS RPMI1640 media for 24 h. The supernatant was replaced with new media (200 μL) and MTT stock solution (10 μL, 5 mg/mL) was added to each well. After incubation for 1 hr the media were removed, DMSO (200 μL) was added to each well and the plates were shaken lightly for 1 hr prior to reading the absorbance at 550 nm. The percentage loss of cell viability was calculated for each well relative to vehicle (0.5% DMSO) treatment. Consequently an apparent increase in cell viability for drug treatment relative to vehicle is tabulated as a negative percentage.

GSK 3α enzyme isoform = GSK 3α enzyme isoform (Homo sapiens (Human), UniProt P49840); experiment: GSK 3α enzyme inhibition (FRET, Z-LYTE); format: biochemical; settings: read-out: IC50 Values for Enzyme Inhibition GSK3α
Description: The enzyme inhibitory activities of compounds disclosed herein were determined by FRET using synthetic peptides labelled with both donor and acceptor fluorophores (Z-LYTE, Invitrogen Ltd., Paisley, UK).
The inhibitory activities of test compounds against the GSK 3α enzyme isoform (Invitrogen), were evaluated by determining the level of activation/phosphorylation of the target peptide.
The GSK3-α protein (500 ng/mL, 2.5 μL) was mixed with the test compound (2.5 μL at either 4 μg/mL, 0.4 μg/mL, 0.04 μg/mL, or 0.004 μg/mL) for 2 hr at RT. The FRET peptide (8 μM, 2.5 μL), which is a phosphorylation target for GSK3α, and ATP (40 μM, 2.5 μL) were then added to the enzyme/compound mixture and the resulting mixture incubated for 1 hr. Development reagent (protease, 5 μL) was added for 1 hr prior to detection in a fluorescence microplate reader (Varioskan® Flash, ThermoFisher Scientific).
In all cases, the site-specific protease cleaves non-phosphorylated peptide only and eliminates the FRET signal. Phosphorylation levels of each reaction were calculated using the ratio of coumarin emission (donor) over fluorescein emission (acceptor), for which low ratios indicate high phosphorylation and high ratios indicate low phosphorylation levels.

Chain of p38 MAPKα isoform (MAPK14) (Q16539 whole entry, canonical isoform): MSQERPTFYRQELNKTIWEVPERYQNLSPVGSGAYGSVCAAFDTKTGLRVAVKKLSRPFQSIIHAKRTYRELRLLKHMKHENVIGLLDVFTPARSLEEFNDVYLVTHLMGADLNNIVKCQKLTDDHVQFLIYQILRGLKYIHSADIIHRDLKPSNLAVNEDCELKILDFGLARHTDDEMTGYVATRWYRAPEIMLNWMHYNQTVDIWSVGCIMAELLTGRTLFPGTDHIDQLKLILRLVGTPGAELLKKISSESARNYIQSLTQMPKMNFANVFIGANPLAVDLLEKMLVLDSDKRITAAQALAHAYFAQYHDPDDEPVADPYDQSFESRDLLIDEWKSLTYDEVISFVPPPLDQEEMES
Chain of GSK 3α enzyme isoform (P49840 whole entry, canonical isoform): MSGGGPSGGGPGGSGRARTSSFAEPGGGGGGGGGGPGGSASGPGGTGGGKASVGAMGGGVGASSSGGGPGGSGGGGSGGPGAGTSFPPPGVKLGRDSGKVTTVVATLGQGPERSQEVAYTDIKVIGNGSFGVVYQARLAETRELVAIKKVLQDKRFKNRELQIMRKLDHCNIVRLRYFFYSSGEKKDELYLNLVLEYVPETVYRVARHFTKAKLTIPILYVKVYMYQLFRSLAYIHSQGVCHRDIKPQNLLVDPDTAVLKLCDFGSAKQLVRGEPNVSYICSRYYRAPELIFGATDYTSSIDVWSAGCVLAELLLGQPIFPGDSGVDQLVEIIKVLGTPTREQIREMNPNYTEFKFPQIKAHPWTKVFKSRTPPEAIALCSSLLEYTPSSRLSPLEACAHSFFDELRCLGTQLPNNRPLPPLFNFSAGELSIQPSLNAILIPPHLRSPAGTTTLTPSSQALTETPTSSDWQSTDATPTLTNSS
Chain of p38MAPKγ (MAPK12) (P53778 whole entry): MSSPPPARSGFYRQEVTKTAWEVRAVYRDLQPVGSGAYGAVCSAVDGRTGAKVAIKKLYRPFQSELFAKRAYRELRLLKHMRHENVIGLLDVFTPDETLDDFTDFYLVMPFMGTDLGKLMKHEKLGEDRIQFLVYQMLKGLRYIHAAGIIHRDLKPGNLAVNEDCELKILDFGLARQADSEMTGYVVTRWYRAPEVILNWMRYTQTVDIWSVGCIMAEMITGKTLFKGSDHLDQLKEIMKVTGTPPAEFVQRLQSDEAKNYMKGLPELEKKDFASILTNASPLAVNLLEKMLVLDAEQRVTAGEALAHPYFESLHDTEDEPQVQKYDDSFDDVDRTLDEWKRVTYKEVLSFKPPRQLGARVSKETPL

Row | Compound | IC50 (p38MAPKγ (MAPK12)) [nM] | IC50 [1] [nM] | IC50 [2] [nM] | MTT Assay Cell viability at time point in d-U937 Cells (d-U937 cells; 4 h) | MTT Assay Cell viability at time point in d-U937 Cells (d-U937 cells; 24 h) | IC50 (GSK 3α enzyme isoform) [nM]
1 | Cc1ccc(-n2nc(C(C)(C)C)cc2NC(=O)Nc2ccc(Oc3ccnc(Nc4cccc(F)c4)n3)c3ccccc23)cc1 [Example 15, 1-(3-(tert-butyl)-1-(p-tolyl)-1H-pyrazol-5-yl)-3-(4-((2-((3-fluorophenyl)amino)pyrimidin-4-yl)oxy)naphthalen-1-yl)urea] | > 16600 | 9.3 | 155 | −ve (−ve and +ve indicate the value is below and above respectively, the no significant effect threshold defined as 30% inhibition at 1 μg/mL at the time point indicated) | −ve (−ve and +ve indicate the value is below and above respectively, the no significant effect threshold defined as 30% inhibition at 1 μg/mL at the time point indicated) | > 16600
2 | Cc1ccc(-n2nc(C(C)(C)C)cc2NC(=O)Nc2ccc(Oc3ccnc(Nc4ccccc4F)n3)c3ccccc23)cc1 [Example 4, 1-(3-(tert-butyl)-1-(p-tolyl)-1H-pyrazol-5-yl)-3-(4-((2-((2-fluorophenyl)amino)pyrimidin-4-yl)oxy)naphthalen-1-yl)urea] | 8200 | 144 | 165 | −ve (−ve and +ve indicate the value is below and above respectively, the no significant effect threshold defined as 30% inhibition at 1 μg/mL at the time point indicated) | −ve (−ve and +ve indicate the value is below and above respectively, the no significant effect threshold defined as 30% inhibition at 1 μg/mL at the time point indicated) | > 16600
3 | Cc1ccc(-n2nc(C(C)(C)C)cc2NC(=O)Nc2ccc(Oc3ccnc(Nc4cccc(C)c4)n3)c3ccccc23)cc1 [Example 12, 1-(3-(tert-butyl)-1-(p-tolyl)-lH-pyrazol-5-yl)-3-(4-((2-(m-tolylamino)pyrimidin-4-yl)oxy)naphthalen-1-yl)urea] | > 16700 | 2.7 | 169 | −ve (−ve and +ve indicate the value is below and above respectively, the no significant effect threshold defined as 30% inhibition at 1 μg/mL at the time point indicated) | −ve (−ve and +ve indicate the value is below and above respectively, the no significant effect threshold defined as 30% inhibition at 1 μg/mL at the time point indicated) | > 16700
4 | Cc1ccc(-n2nc(C(C)(C)C)cc2NC(=O)Nc2ccc(Oc3ccnc(Nc4ccc(O)cc4F)n3)c3ccccc23)cc1 [Example 30, 1-(3-(tert-butyl)-1-(p-tolyl)-1H-pyrazol-5-yl)-3-(4-((2-((2-fluoro-4-hydroxyphenyl)amino)pyrimidin-4-yl)oxy)naphthalen-1-yl)urea] | > 1620 | 11 | 68 | −ve (−ve and +ve indicate the value is below and above respectively, the no significant effect threshold defined as 30% inhibition at 1 μg/mL at the time point indicated) | −ve (−ve and +ve indicate the value is below and above respectively, the no significant effect threshold defined as 30% inhibition at 1 μg/mL at the time point indicated) | > 1620
5 | Cc1ccc(-n2nc(C(C)(C)C)cc2NC(=O)Nc2ccc(Oc3ccnc(Nc4cc(C)ccc4C)n3)c3ccccc23)cc1 [Example 10, 1-(3-(tert-butyl)-1-(p-tolyl)-1H-pyrazol-5-yl)-3-(4-((2-((2,5-dimethylphenyl)amino)pyrimidin-4-yl)oxy)naphthalen-1-yl)urea] | > 16300 | 43 | 195 | −ve (−ve and +ve indicate the value is below and above respectively, the no significant effect threshold defined as 30% inhibition at 1 μg/mL at the time point indicated) | −ve (−ve and +ve indicate the value is below and above respectively, the no significant effect threshold defined as 30% inhibition at 1 μg/mL at the time point indicated) | > 16300
6 | Cc1ccc(-n2nc(C(C)(C)C)cc2NC(=O)Nc2ccc(Oc3ccnc(Nc4cccc(Cl)c4)n3)c3ccccc23)cc1 [Example 13, 1-(3-(tert-butyl)-1-(p-tolyl)-1H-pyrazol-5-yl)-3-(4-((2-((3-chlorophenyl)amino)pyrimidin-4-yl)oxy)naphthalen-1-yl)urea] | > 16200 | 3 | 262 | −ve (−ve and +ve indicate the value is below and above respectively, the no significant effect threshold defined as 30% inhibition at 1 μg/mL at the time point indicated) | −ve (−ve and +ve indicate the value is below and above respectively, the no significant effect threshold defined as 30% inhibition at 1 μg/mL at the time point indicated) | > 16200
7 | Cc1ccc(-n2nc(C(C)(C)C)cc2NC(=O)Nc2ccc(Oc3ccnc(Nc4ccccc4C)n3)c3ccccc23)cc1 [Example 21, 1-(3-(tert-butyl)-1-(p-tolyl)-1H-pyrazol-5-yl)-3-(4-((2-(o-tolylamino)pyrimidin-4-yl)oxy)naphthalen-1-yl)urea] | > 1670 | 36 | 33 | −ve (−ve and +ve indicate the value is below and above respectively, the no significant effect threshold defined as 30% inhibition at 1 μg/mL at the time point indicated) | −ve (−ve and +ve indicate the value is below and above respectively, the no significant effect threshold defined as 30% inhibition at 1 μg/mL at the time point indicated) | > 1670
